Results taken from patent US12414960B2, “Analogues of oleuropein and oleacein and uses thereof” (Attica Sciences Ltd., priority 2020, dated 2025).

How the values were obtained:
[1] = tested on: MKN-45 gastric cancer cells; assay: XTT cell growth assay, MKN-45; assay type: cell-based, human; conditions: NS = not statistically significant; for inhibition at 50 µM: Homo sapiens, MKN-45, 24 h, read-out: Effectiveness to suppress MKN-45 cell growth (cell growth inhibition)
From the text: The XTT assay is used to measure cellular metabolic activity as an indicator of cell viability, proliferation and cytotoxicity. This non-radioactive, colorimetric assay system was first described by Scudiero, et al. in 1988 (Paull, Kenneth D. et al., J Heterocycl Chem, 1988, 25: 911-914; Scudiero, Dominic A. et al., Cancer Res, 1988, 48: 4827-4833) and improved in subsequent years by several other investigators (Weislow, Owen S. et al., J Natl Cancer Inst, 1989, 81(8): 577-586; Roehm, N. W. et al., J Immunol Methods, 1991, 142: 257-265).
The XTT assay is based on the reduction of a yellow tetrazolium salt (sodium 3′-[1-(phenylaminocarbonyl)-3,4-tetrazolium]-bis (4-methoxy6-nitro) benzene sulfonic acid hydrate or XTT) to an orange formazan dye by metabolically active cells (FIG. 8). The formazan dye formed is soluble in aqueous solutions and is directly quantified using a scanning multiwell spectrophotometer (ELISA reader). An increase in number of living cells results in an increase in the overall activity of mitochondrial dehydrogenases in the sample. This increase directly correlates to the amount of orange formazan formed, as monitored by the absorbance. Reduced number of living cells leads to reduced metabolism of quaternary salt and therefore reduced absorption.
Cell viability was assessed using the XTT assay kit (Roche, Mannheim, Germany) as described previously (Kouka, Paraskevi et al., Oxid Med Cell Longev. 2019, Article ID 1870965). Briefly, cancer cells per well were cultured in a 96-well plate in Dulbecco's modified Eagle's medium (DMEM). Following a 24 h incubation, 5, 10 and 50 μM of the tested GS compound was diluted in a serum-free DMEM and administered for 24 h. Subsequently, 50 μL of the XTT reagent (50:1) was added to each well. After 4 h of incubation, the absorbance was monitored at 450 nm and also at 630 nm as a reference wavelength in a BioTek ELx800 microplate reader (BioTek Instruments Inc., Winooski, VT, USA). As a negative control, samples containing serum-free DMEM only were used.
MKN-45 is a human gastric adenocarcinoma, established from the poorly differentiated adenocarcinoma of the stomach (medullary type) of a person.
The effects of exemplary compounds on cancer cell lines and one non-tumorigenic cell line (control) were investigated using a high throughput screening assay. More specifically, the effects of the GS compounds on cell growth was evaluated by the XTT assay for cell lines HepG2, HeLa, MCF7 ER+, MDA-MB-231, and MKN-45, and by the Cell Glo luminescence assay for cell lines MIA PaCa-2, HCT-116, MCF-10A, and PANC-1.

[2] = tested on: HCT-116 colon cancer tumor; assay: HCT116 xenograft mouse model; assay type: in vivo, nu/nu mice; conditions: 20 mg/kg i.p. every 5 days, until 20 days post-treatment
Protocol: The effect of GS27 on colon cancer tumor growth in mice was evaluated in a HCT116 xenograft mouse model. HCT-116 is a human colorectal cancer cell line that has a mutation in RAS proto-oncogene.
Xenograft tumors were generated by injecting HCT-116 colon cancer cells (5×10^6) into the right flank of female nu/nu mice (Charles River Laboratories). All mice developed tumors in 10 days with size of approximately 100 mm3. For each experiment, mice were randomly distributed into equal groups (4 mice per group) that were untreated, or treated by intraperitoneal injections every 5 days with 20 mg/kg GS27 or GS19 (oleocanthal). Tumor volume (average, SD) was evaluated until 20 days post-treatment.

[3] = Superoxide anion radical scavenging assay (NBT reduction); assay type: biochemical; conditions: NS = not statistically significant
From the text: These radicals may also play an important role in the peroxidation of unsaturated fatty acids and possibly other susceptible substances.
Under aerobic conditions, superoxide anion radicals are generated nonenzymatically in a NADH-PMS system by oxidation of […] (NADH) with phenazine methosulphate (PMS) in the presence of dissolved oxygen. (See, Nimse, Satish B. et al., RSC Adv, 2015, 5: 27986, “Free radicals, natural antioxidants, and their reaction mechanisms”). The superoxide anion radical O2.^− reduces the pale yellow colored nitroblue tetrazolium cation (NBT^2+) to a blue colored formazan dye, which is measured spectrophotometrically at 560 nm. The decrease of absorbance at 560 nm with antioxidant indicates the consumption of […] in the reaction mixture (FIG. 4).
The superoxide anion radical scavenging activity of each GS compound was determined using the nitro-blue tetrazolium (NBT) reduction method (Cos, Paul et al., J Nat Prod. 1998; 61(1): 71-76). The results were calculated as the percentage of inhibition according to the following formula: I (%)=100 [1−(S−SB)/(C−CB)] Where S, SB, C, and CB are the absorbance of the sample, the blank sample, the control, and the blank control, respectively.

IL-6 = assay: ELISA of IL-6 in PMA/LPS-treated THP-1 cells; assay type: cell-based, human; conditions: THP-1, PMA then LPS 100 ng/ml 24 hours, 5 uM compound added 2 hours before LPS
Protocol: Human monocytes (THP-1, ATCC) were cultured in RPMI 1640 media supplemented with HEPES buffer (10 mM), sodium pyruvate (1 mM), glucose (4.5 g/L), fetal bovine serum (10%), penicillin (100 U/mL), streptomycin (100 μg/mL), and 2-mercaptoethanol (0.05 mM). THP-1 cells were treated with PMA (100 ng/ml) for 48 hours and then washed and rested for 24 hours in PMA-free media. These cells were treated with LPS (100 ng/ml) for 24 hours in the presence or absence of 5 uM of […] compounds (added 2 hours before LPS). Cell culture supernatants were collected and IL-1β (cat. No DLB50, R&D Systems), TNF-α (cat. no. DTA00D, R&D Systems) and IL-6 (cat. No D6050, R&D Systems) protein levels were evaluated by ELISA assay.

Structure (SMILES) | inhibition at 50 µM [1] [%] | tumor size inhibition, HCT-116 colon cancer tumor growth [2] | Superoxide Anion Radical Scavenging Assay IC50 [3] [μg extract/mL] | further results
C/C=C(/C=O)[C@@H](CC=O)CC(=O)OCCCSC [GS28, (3S,4E)-4-formyl-3-(2-oxoethyl)-4-hexenoic acid 3-(methylthio)propyl ester] | 95 |  |  | Effectiveness to suppress MKN-45 cell growth (cell growth inhibition) ([1]; 50 uM, 24 h): highly effective
C/C=C(/C=O)[C@@H](CC=O)CC(=O)SCCc1ccccc1 [GS27, S-phenethyl (3S,4E)-4-formyl-3-(2-oxoethyl)hex-4-enethioate] |  | > 60% |  | 
C/C=C1/[C@H](OC2OC(CO)C(O)C(O)C2O)OC=C(C(=O)O)[C@H]1CC(=O)OCCc1ccc(O)c(O)c1 (stereo in doubt) [GS6, (2S,4S,E)-4-(2-(3,4-dihydroxyphenethoxy)-2-oxoethyl)-3-ethylidene-2{[(2R,3S,4R,5R,6S)-3,4,5-trihydroxy-6-(hydroxymethyl)tetrahydro-2H-pyran-2-yl]oxy}-3,4dihydro-2H-pyran-5-carboxylic acid] |  |  | 23.2 | 
C/C=C1/[C@H](O[C@@H]2O[C@H](CO)[C@@H](O)[C@H](O)[C@H]2O)OC=C(C(=O)OC)[C@H]1CC(=O)OCCc1ccc(O)c(O)c1 [GS1, oleuropein] |  |  | 40.5 | 
C/C=C(/C=O)[C@@H](CC=O)CC(=O)OCCc1ccc(O)cc1 [GS19, (3S,4E)-4-formyl-3-(2-oxoethyl)-4-hexenoic acid 2-(4-hydroxyphenyl)ethyl ester, reference compound] | 44.4 | did not show any significant effect |  | 
C/C=C(/C=O)[C@@H](CC=O)CC(=O)OCCOc1ccccc1 [GS24, (3S,4E)-4-formyl-3-(2-oxoethyl)-4-hexenoic acid 2-phenoxyethyl ester] | 35.4 |  |  | IL-6 protein levels (IL-6): effective for reducing
